According to patent US20260138988A1, “Spiropyrrolidine Derived Antiviral Agents” (Enanta Pharmaceuticals, Inc., priority 2021, published 2026):

Target: SARS-CoV-2 3CL-protease (Severe acute respiratory syndrome coronavirus 2, UniProt P0DTD1)
Assay: SARS-CoV-2 3C-Like (3CL) Protease Fluorescence Assay (FRET)
Assay type: biochemical
Conditions: SARS-CoV-2 3CL-protease 10 nM, test compounds 0-10 μM, duplicate, read-out: IC50

| SMILES | IC50 [nM] |
| --- | --- |
| CC(C)C[C@@H](C(=O)N1C[C@]2(C[C@H]1C#N)C(=O)Nc1ccccc12)N(C)C(=O)[C@@H]1[C@@H]2C[C@@H]2CN1C [Example 253] | 100 to 1000 |
| CCN1C[C@H]2C[C@H]2[C@H]1C(=O)N(C)[C@@H](CC(C)C)C(=O)N1C[C@]2(C[C@H]1C#N)C(=O)Nc1ccccc12 [Example 254] | 100 to 1000 |
| CC(C)C[C@@H](C(=O)N1C[C@]2(C[C@H]1C#N)C(=O)Nc1ccccc12)N(C)C(=O)[C@@H]1CC2(CCCC2)CN1C(C)C [Example 255] | < 100 |
| CC(C)C[C@@H](C(=O)N1C[C@]2(C[C@H]1C#N)C(=O)Nc1ccccc12)N(C)C(=O)[C@@H]1CC2(CCCC2)CN1C1CC1 [Example 256] | < 100 |
| CCN1CC2(CCCC2)C[C@H]1C(=O)N(C)[C@@H](CC(C)C)C(=O)N1C[C@]2(C[C@H]1C#N)C(=O)Nc1ccccc12 [Example 257] | < 100 |
| CC(C)C[C@@H](C(=O)N1C[C@]2(C[C@H]1C#N)C(=O)Nc1ccccc12)N(C)C(=O)[C@@H]1C[C@H]2C[C@H]2N1C1CC1 [Example 258] | < 100 |
| CC(C)C[C@@H](C(=O)N1C[C@]2(C[C@H]1C#N)C(=O)Nc1ccccc12)N(C)C(=O)[C@@H]1C[C@H]2C[C@H]2N1C [Example 260] | < 100 |
| CCN1[C@@H]2C[C@@H]2C[C@H]1C(=O)N(C)[C@@H](CC(C)C)C(=O)N1C[C@]2(C[C@H]1C#N)C(=O)Nc1ccccc12 [Example 261] | < 100 |
| COCCC(=O)N[C@@H](C)C(=O)N(C)[C@@H](CC(C)(C)C)C(=O)N1C[C@]2(C[C@H]1C#N)C(=O)Nc1ccccc12 [Example 262] | < 100 |
| COCCOCCC(=O)N[C@@H](C)C(=O)N(C)[C@@H](CC(C)(C)C)C(=O)N1C[C@]2(C[C@H]1C#N)C(=O)Nc1ccccc12 [Example 263] | < 100 |
| C[C@H](NC(=O)CCCC(F)(F)F)C(=O)N(C)[C@@H](CC(C)(C)C)C(=O)N1C[C@]2(C[C@H]1C#N)C(=O)Nc1ccccc12 [Example 264] | < 100 |
| CC(C)C[C@@H](C(=O)N1C[C@]2(C[C@H]1C#N)C(=O)Nc1ccccc12)N(C)C(=O)[C@H](C)NC(=O)C1CC1(C)C (stereo partly drawn) [Example 265] | < 100 |
| CC(C)C[C@@H](C(=O)N1C[C@]2(C[C@H]1C#N)C(=O)Nc1ccccc12)N(C)C(=O)[C@H](C)NC(=O)CC(F)(F)F [Example 266] | < 100 |
| C[C@H](NC(=O)C(F)(F)F)C(=O)N(C)[C@@H](Cc1ccccc1)C(=O)N1C[C@]2(C[C@H]1C#N)C(=O)Nc1ccccc12 [Example 267] | < 100 |
| C[C@H](NC(=O)C(F)(F)C(F)(F)F)C(=O)N(C)[C@@H](Cc1ccccc1)C(=O)N1C[C@]2(C[C@H]1C#N)C(=O)Nc1ccccc12 [Example 268] | < 100 |
| C[C@H](NC(=O)C(C)(F)F)C(=O)N(C)[C@@H](Cc1ccccc1)C(=O)N1C[C@]2(C[C@H]1C#N)C(=O)Nc1ccccc12 [Example 269] | < 100 |
| C[C@H](NC(=O)c1ccc(F)cc1)C(=O)N(C)[C@@H](Cc1ccccc1)C(=O)N1C[C@]2(C[C@H]1C#N)C(=O)Nc1ccccc12 [Example 270] | < 100 |
| CCC(F)(F)C(=O)N[C@@H](C)C(=O)N(C)[C@@H](CC(C)C)C(=O)N1C[C@]2(C[C@H]1C#N)C(=O)Nc1ccccc12 [Example 271] | < 100 |
| CC(C)C[C@@H](C(=O)N1C[C@]2(C[C@H]1C#N)C(=O)Nc1ccccc12)N(C)C(=O)[C@H](C)NC(=O)C1(F)CCC1 [Example 272] | < 100 |
| CC(C)C[C@@H](C(=O)N1C[C@]2(C[C@H]1C#N)C(=O)Nc1ccccc12)N(C)C(=O)[C@H](C)NC(=O)C(C)(F)F [Example 273] | < 100 |
| C[C@H](NC(=O)OCc1ccccc1)C(=O)N(C)[C@@H](Cc1ccccc1)C(=O)N1C[C@]2(C[C@H]1C#N)C(=O)Nc1ccccc12 [Example 274] | < 100 |
| CC(C)C[C@@H](C(=O)N1C[C@]2(C[C@H]1C#N)C(=O)Nc1ccccc12)N(C)C(=O)[C@H](C)NC(=O)C1(F)C(F)(F)C1(F)F [Example 275] | < 100 |
| CC(C)C[C@@H](C(=O)N1C[C@]2(C[C@H]1C#N)C(=O)Nc1ccccc12)N(C)C(=O)[C@H](C)NC(=O)C(F)(F)C(C)C [Example 276] | < 100 |
| CCCC(F)(F)C(=O)N[C@@H](C)C(=O)N(C)[C@@H](CC(C)C)C(=O)N1C[C@]2(C[C@H]1C#N)C(=O)Nc1ccccc12 [Example 277] | < 100 |
| CC(C)C[C@@H](C(=O)N1C[C@]2(C[C@H]1C#N)C(=O)Nc1ccccc12)N(C)C(=O)[C@H](C)NC(=O)C12CC(F)(C1)C2 [Example 278] | < 100 |
| CC(C)C[C@@H](C(=O)N1C[C@]2(C[C@H]1C#N)C(=O)Nc1ccccc12)N(C)C(=O)[C@H](C)NC(=O)C12CC(C(F)(F)F)(C1)C2 [Example 279] | < 100 |
| C[C@H](NC(=O)c1ccc2c(c1)OC(F)(F)O2)C(=O)N(C)[C@@H](CC(C)(C)C)C(=O)N1C[C@]2(C[C@H]1C#N)C(=O)Nc1ccccc12 [Example 280] | < 100 |

| SMILES | IC50 [nM] |
| --- | --- |
| C[C@H](NC(=O)c1cc2ccccc2n1-c1ccccc1)C(=O)N(C)[C@@H](CC(C)(C)C)C(=O)N1C[C@]2(C[C@H]1C#N)C(=O)Nc1ccccc12 [Example 281] | < 100 |
| C[C@H](NC(=O)c1ccccc1-c1ccccc1)C(=O)N(C)[C@@H](CC(C)(C)C)C(=O)N1C[C@]2(C[C@H]1C#N)C(=O)Nc1ccccc12 [Example 282] | < 100 |
| CC(C)C[C@@H](C(=O)N1C[C@]2(C[C@H]1C#N)C(=O)Nc1ccccc12)N(C)C(=O)[C@H](C)NC(=O)C(C)(C)C(F)(F)F [Example 283] | < 100 |
| C[C@H](NC(=O)c1cccc2cc(Cl)ccc12)C(=O)N(C)[C@@H](CC(C)(C)C)C(=O)N1C[C@]2(C[C@H]1C#N)C(=O)Nc1ccccc12 [Example 284] | < 100 |
| CC(C)C[C@@H](C(=O)N1C[C@]2(C[C@H]1C#N)C(=O)Nc1ccccc12)N(C)C(=O)[C@H](C)NC(=O)C(F)(F)C1CC1 [Example 285] | < 100 |
| C[C@H](NC(=O)c1ccc(C(F)(F)F)cc1)C(=O)N(C)[C@@H](CC(C)(C)C)C(=O)N1C[C@]2(C[C@H]1C#N)C(=O)Nc1ccccc12 [Example 286] | < 100 |
| C[C@H](NC(=O)c1ccc(S(C)(=O)=O)cc1)C(=O)N(C)[C@@H](CC(C)(C)C)C(=O)N1C[C@]2(C[C@H]1C#N)C(=O)Nc1ccccc12 [Example 287] | < 100 |
| C[C@H](NC(=O)C(C)(F)F)C(=O)N(C)[C@@H](CC(C)(C)C)C(=O)N1C[C@]2(C[C@H]1C#N)C(=O)Nc1ccccc12 [Example 288] | < 100 |
| C[C@H](NC(=O)c1ccc(-c2ccccc2)cc1)C(=O)N(C)[C@@H](CC(C)(C)C)C(=O)N1C[C@]2(C[C@H]1C#N)C(=O)Nc1ccccc12 [Example 289] | < 100 |
| C[C@H](NC(=O)c1cccc(-c2ccccc2)c1)C(=O)N(C)[C@@H](CC(C)(C)C)C(=O)N1C[C@]2(C[C@H]1C#N)C(=O)Nc1ccccc12 [Example 290] | < 100 |
| CC(C)C[C@@H](C(=O)N1C[C@]2(C[C@H]1C#N)C(=O)Nc1ccccc12)N(C)C(=O)[C@H](C)NC(=O)c1ccc(C(F)(F)F)cc1C(F)(F)F [Example 291] | < 100 |
| C[C@H](NC(=O)c1cc(F)cc2ccccc12)C(=O)N(C)[C@@H](CC(C)(C)C)C(=O)N1C[C@]2(C[C@H]1C#N)C(=O)Nc1ccccc12 [Example 292] | < 100 |
| COc1ccc(C(=O)N[C@@H](C)C(=O)N(C)[C@@H](CC(C)(C)C)C(=O)N2C[C@]3(C[C@H]2C#N)C(=O)Nc2ccccc23)c2ccccc12 [Example 293] | < 100 |
| C[C@H](NC(=O)c1cccc2ccc(Cl)cc12)C(=O)N(C)[C@@H](CC(C)(C)C)C(=O)N1C[C@]2(C[C@H]1C#N)C(=O)Nc1ccccc12 [Example 294] | < 100 |
| CC(C)C[C@@H](C(=O)N1C[C@]2(C[C@H]1C#N)C(=O)Nc1ccccc12)N(C)C(=O)[C@H](C)NC(=O)c1cccc2cc(F)ccc12 [Example 295] | < 100 |
| CC(C)C[C@@H](C(=O)N1C[C@]2(C[C@H]1C#N)C(=O)Nc1ccccc12)N(C)C(=O)[C@H](C)NC(=O)C1(F)CC1 [Example 296] | < 100 |
| CC(C)C[C@@H](C(=O)N1C[C@]2(C[C@H]1C#N)C(=O)Nc1ccccc12)N(C)C(=O)[C@H](C)NC(=O)C1(C(F)(F)F)CC1 [Example 297] | < 100 |
| CC(C)C[C@@H](C(=O)N1C[C@]2(C[C@H]1C#N)C(=O)Nc1ccccc12)N(C)C(=O)[C@H](C)NC(=O)C12CC3CC(CC(C3)C1)C2 [Example 298] | < 100 |
| CC(N[C@@H](C)C(=O)N(C)[C@@H](CC(C)(C)C)C(=O)N1C[C@]2(C[C@H]1C#N)C(=O)Nc1ccccc12)C(F)(F)F (stereo partly drawn) [Example 299] | < 100 |
| C[C@H](NC(=O)c1c(F)c(F)c(F)c(F)c1F)C(=O)N(C)[C@@H](CC(C)(C)C)C(=O)N1C[C@]2(C[C@H]1C#N)C(=O)Nc1ccccc12 [Example 300] | < 100 |
| CC(C)C[C@@H](C(=O)N1C[C@]2(C[C@H]1C#N)C(=O)Nc1ccccc12)N(C)C(=O)[C@H](C)NC(=O)c1c(F)c(F)c(F)c(F)c1F [Example 301] | < 100 |
| C[C@H](NC(c1ccc(F)cc1)C(F)(F)F)C(=O)N(C)[C@@H](CC(C)(C)C)C(=O)N1C[C@]2(C[C@H]1C#N)C(=O)Nc1ccccc12 (stereo partly drawn) [Example 302] | < 100 |
| CC(C)(C)C[C@H](NC(=O)[C@H](CC1CC1)NC(=O)c1ccc(C2CCCCC2)cc1)C(=O)N1C[C@]2(C[C@H]1C#N)C(=O)Nc1ccccc12 [Example 303] | < 100 |
| CC(C)(C)C[C@H](NC(=O)[C@H](CC1CC1)NC(=O)c1ccc(C(C)(C)C)cc1)C(=O)N1C[C@]2(C[C@H]1C#N)C(=O)Nc1ccccc12 [Example 304] | < 100 |
| CC(C)(C)C[C@H](NC(=O)[C@H](CC1CC1)NC(=O)c1cc(F)c2nn(C3CC3)cc2c1)C(=O)N1C[C@]2(C[C@H]1C#N)C(=O)Nc1ccccc12 [Example 305] | < 100 |
| CC(C)(C)C[C@H](NC(=O)[C@H](CC1CC1)NC(=O)c1cnn(-c2ccc(C(F)(F)F)cc2)c1)C(=O)N1C[C@]2(C[C@H]1C#N)C(=O)Nc1ccccc12 [Example 306] | < 100 |
| C[C@@H](NC(=O)OCc1ccccc1)C(=O)N(C)[C@@H](CC(C)(C)C)C(=O)N1C[C@]2(C[C@H]1C#N)C(=O)Nc1ccccc12 [Example 307] | < 100 |
